# According to patent US20080132538A1, “Pharmaceutical uses for fluoroalkoxybenzylamino derivatives of nitrogen containing heterocycles” (Pfizer Inc, priority 2000, published 2008):
# System: not given
# Settings: not given
row,melting point,SMILES
1,263 to 264 °C (dec.),CC(C)(C)c1ccc(OC(F)F)c(CN[C@H]2CCCN[C@H]2c2ccccc2)c1.Cl
2,245 to 247 °C (dec.),CC(C)c1ccc(OC(F)F)c(CN[C@H]2CCCN[C@H]2c2ccccc2)c1.Cl
3,262 to 264 °C,CC(C)(C)c1ccc(OC(F)(F)F)c(CN[C@H]2CCCN[C@H]2c2ccccc2)c1.Cl
4,245 to 246 °C (dec.),CC(C)Oc1ccc(OC(F)(F)F)cc1CN[C@H]1CCCN[C@H]1c1ccccc1.Cl
5,238 to 239 °C,Cl.FC(F)Oc1ccc(OC(F)F)c(CN[C@H]2CCCN[C@H]2c2ccccc2)c1
6,231 to 233 °C,Cl.FC(F)(F)Oc1ccccc1CN[C@H]1CCCN[C@H]1c1ccccc1
7,250 to 252 °C,CN(C)c1ccc(OCC(F)(F)F)c(CN[C@H]2CCCN[C@H]2c2ccccc2)c1.Cl
8,> 275 °C,Cc1ccc(OC(F)F)c(CN[C@H]2CCCN[C@H]2c2ccccc2)c1.Cl
9,> 275 °C (dec.),CCOc1ccc(OC(F)(F)F)cc1CN[C@H]1CCCN[C@H]1c1ccccc1.Cl
10,> 270 °C,CC(=O)Nc1ccc(OCC(F)(F)F)c(CN[C@H]2CCCN[C@H]2c2ccccc2)c1.Cl
11,> 280 °C,CC(C)c1ccc(OCC(F)(F)F)c(CN[C@H]2CCCN[C@H]2c2ccccc2)c1.Cl

# System: CCR5 receptors
# Settings: Proc. Nat'l. Acad. Sci., 98 (7), p3970; cited from earlier work
row,SMILES,effect on CCR5 receptors
1,"COc1ccccc1CN[C@H]1C2CCN(CC2)[C@H]1C(c1ccccc1)c1ccccc1 [CP-96,345]",down regulates CCR5 receptors
